According to ChEMBL document CHEMBL1201862, “PubChem BioAssay data set” (2004):
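Test compounds were applied to cells in 96-well plates for 48 hours at 5 doses. GI50 is the concentration that inhibits growth by half.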 Active and inactive are the calls of the source. Cut-off read from the data, not from the text of the source: active = GI50 up to about 1.1 µM and inactive = higher.

Key:
Assay in all cases: DTP human tumour cell line panel, 48 h
UACC-62 = tested on: UACC-62
HCC 2998 = tested on: HCC 2998
SF-295 = tested on: SF-295
OVCAR-3 = tested on: OVCAR-3
786-0 = tested on: 786-0
RXF 631 = tested on: RXF 631
RXF 393 = tested on: RXF 393
NCI-H460 = tested on: NCI-H460
NCI-H226 = tested on: NCI-H226
EKVX = tested on: EKVX
DMS-273 = tested on: DMS-273
DLD-1 = tested on: DLD-1
SNB-75 = tested on: SNB-75
NCI-H23 = tested on: NCI-H23
CCRF-CEM = tested on: CCRF-CEM
A498 = tested on: A498
MOLT-4 = tested on: MOLT-4
OVCAR-8 = tested on: OVCAR-8
HT-29 = tested on: HT-29
SNB-78 = tested on: SNB-78
Malme-3M = tested on: Malme-3M
HOP-92 = tested on: HOP-92
KM12 = tested on: KM12
SW-620 = tested on: SW-620
IGROV-1 = tested on: IGROV-1
NCI-H522 = tested on: NCI-H522
RPMI-8226 = tested on: RPMI-8226
DMS-114 = tested on: DMS-114
SK-OV-3 = tested on: SK-OV-3
U-251 = tested on: U-251
SK-MEL-2 = tested on: SK-MEL-2
HOP-62 = tested on: HOP-62
M14 = tested on: M14
HCT-116 = tested on: HCT-116
UO-31 = tested on: UO-31
COLO 205 = tested on: COLO 205
LXFL 529 = tested on: LXFL 529
UACC-257 = tested on: UACC-257
K562 = tested on: K562
KM-20L2 = tested on: KM-20L2
SK-MEL-28 = tested on: SK-MEL-28
XF498 = tested on: XF498
M19-MEL = tested on: M19-MEL
SK-MEL-5 = tested on: SK-MEL-5
OVCAR-5 = tested on: OVCAR-5
SF-268 = tested on: SF-268
A549 = tested on: A549
LOX IMVI = tested on: LOX IMVI
HL-60 = tested on: HL-60
SF-539 = tested on: SF-539
TK-10 = tested on: TK-10
ACHN = tested on: ACHN
SR = tested on: SR
OVCAR-4 = tested on: OVCAR-4
HCT-15 = tested on: HCT-15
SN12C = tested on: SN12C
SNB-19 = tested on: SNB-19

Compound: C/C(CC(=O)Nc1ccc(C)cc1C)=N/N=C(N)N
- GI50 (UACC-62): > 100 µM (inactive)
- GI50 (HCC 2998): > 100 µM (inactive)
- GI50 (SF-295): > 100 µM (inactive)
- GI50 (OVCAR-3): > 100 µM (inactive)
- GI50 (786-0): > 100 µM (inactive)
- GI50 (RXF 631): > 100 µM (inactive)
- GI50 (RXF 393): > 100 µM (inactive)
- GI50 (NCI-H460): > 100 µM (inactive)
- GI50 (NCI-H226): > 100 µM (inactive)
- GI50 (EKVX): > 100 µM (inactive)
- GI50 (DMS-273): > 100 µM (inactive)
- GI50 (DLD-1): > 100 µM (inactive)
- GI50 (SNB-75): > 100 µM (inactive)
- GI50 (NCI-H23): > 100 µM (inactive)
- GI50 (CCRF-CEM): > 100 µM (inactive)
- GI50 (A498): > 100 µM (inactive)
- GI50 (MOLT-4): > 100 µM (inactive)
- GI50 (OVCAR-8): > 100 µM (inactive)
- GI50 (HT-29): > 100 µM (inactive)
- GI50 (SNB-78): > 100 µM (inactive)
- GI50 (Malme-3M): > 100 µM (inactive)
- GI50 (HOP-92): > 100 µM (inactive)
- GI50 (KM12): > 100 µM (inactive)
- GI50 (SW-620): > 100 µM (inactive)
- GI50 (IGROV-1): > 100 µM (inactive)
- GI50 (NCI-H522): > 100 µM (inactive)
- GI50 (RPMI-8226): > 100 µM (inactive)
- GI50 (DMS-114): > 100 µM (inactive)
- GI50 (SK-OV-3): > 100 µM (inactive)
- GI50 (U-251): > 100 µM (inactive)
- GI50 (SK-MEL-2): > 100 µM (inactive)
- GI50 (HOP-62): > 100 µM (inactive)
- GI50 (M14): > 100 µM (inactive)
- GI50 (HCT-116): > 100 µM (inactive)
- GI50 (UO-31): > 100 µM (inactive)
- GI50 (COLO 205): > 100 µM (inactive)
- GI50 (LXFL 529): > 100 µM (inactive)
- GI50 (UACC-257): > 100 µM (inactive)
- GI50 (K562): > 100 µM (inactive)
- GI50 (KM-20L2): > 100 µM (inactive)
- GI50 (SK-MEL-28): > 100 µM (inactive)
- GI50 (XF498): > 100 µM (inactive)
- GI50 (M19-MEL): > 100 µM (inactive)
- GI50 (SK-MEL-5): > 100 µM (inactive)
- GI50 (OVCAR-5): > 100 µM (inactive)
- GI50 (SF-268): > 100 µM (inactive)
- GI50 (A549): > 100 µM (inactive)
- GI50 (LOX IMVI): > 100 µM (inactive)
- GI50 (HL-60): > 100 µM (inactive)
- GI50 (SF-539): > 100 µM (inactive)
- GI50 (TK-10): > 100 µM (inactive)
- GI50 (ACHN): > 100 µM (inactive)

Compound: C=C1[C@@H]2CCC(C)(C)[C@H]1CCC(=O)[C@@H]2C(=O)OC
- GI50 (UACC-62): > 100 µM (inactive)
- GI50 (HCC 2998): > 100 µM (inactive)
- GI50 (SF-295): > 100 µM (inactive)
- GI50 (OVCAR-3): > 100 µM (inactive)
- GI50 (786-0): > 100 µM (inactive)
- GI50 (RXF 631): > 100 µM (inactive)
- GI50 (RXF 393): > 100 µM (inactive)
- GI50 (NCI-H460): > 100 µM (inactive)
- GI50 (NCI-H226): > 100 µM (inactive)
- GI50 (EKVX): > 100 µM (inactive)
- GI50 (SR): > 100 µM (inactive)
- GI50 (DMS-273): > 100 µM (inactive)
- GI50 (NCI-H23): > 100 µM (inactive)
- GI50 (CCRF-CEM): > 100 µM (inactive)
- GI50 (A498): > 100 µM (inactive)
- GI50 (MOLT-4): > 100 µM (inactive)
- GI50 (OVCAR-8): > 100 µM (inactive)
- GI50 (HT-29): > 100 µM (inactive)
- GI50 (Malme-3M): > 100 µM (inactive)
- GI50 (SW-620): > 100 µM (inactive)
- GI50 (IGROV-1): > 100 µM (inactive)
- GI50 (OVCAR-4): > 100 µM (inactive)
- GI50 (HCT-15): > 100 µM
- GI50 (RPMI-8226): > 100 µM (inactive)
- GI50 (DMS-114): > 100 µM (inactive)
- GI50 (U-251): > 100 µM (inactive)
- GI50 (SN12C): > 100 µM (inactive)
- GI50 (SK-MEL-2): > 100 µM (inactive)
- GI50 (HOP-62): > 100 µM (inactive)
- GI50 (SNB-19): > 100 µM (inactive)
- GI50 (M14): > 100 µM (inactive)
- GI50 (HCT-116): > 100 µM (inactive)
- GI50 (UO-31): > 100 µM (inactive)
- GI50 (COLO 205): > 100 µM (inactive)
- GI50 (LXFL 529): > 100 µM (inactive)
- GI50 (UACC-257): > 100 µM (inactive)
- GI50 (K562): > 100 µM (inactive)
- GI50 (KM-20L2): > 100 µM (inactive)
- GI50 (SK-MEL-28): > 100 µM (inactive)
- GI50 (XF498): > 100 µM (inactive)
- GI50 (M19-MEL): > 100 µM (inactive)
- GI50 (SK-MEL-5): > 100 µM (inactive)
- GI50 (SF-268): > 100 µM (inactive)
- GI50 (A549): > 100 µM (inactive)
- GI50 (LOX IMVI): > 100 µM (inactive)
- GI50 (HL-60): > 100 µM (inactive)
- GI50 (SF-539): > 100 µM (inactive)
- GI50 (TK-10): > 100 µM (inactive)
- GI50 (ACHN): > 100 µM (inactive)
